≈ marks a conversion by molar mass, not a printed value.
Tests used:
Type in all cases: physicochemical
Conditions in all cases: organic solvent or mixture
[1] = Solubility of 3 in HOAc, 2-MeTHF and THF
Protocol: Although the reaction was high yielding, the amount of solvent required to perform the reaction limited the throughput due to the poor solubility of 3 in EtOAc. It was therefore desirable to find an alternate solvent for this reaction to prevent the risk of poor conversion while increasing the volume efficiency. To address this issue, the solubility of 3 was evaluated in HOAc and THF in addition to 2-MeTHF. […] In one embodiment, THF is used for the hydrogenation reaction. In another embodiment, 2-MeTHF is used for the hydrogenation reaction. […] In one embodiment, when the hydrogenation reaction was run at 40 psi hydrogen pressure at 40° C., the reaction was typically complete in 2 to 3 hours. The final variable which was investigated was catalyst loading. The initial 10 wt % loading was reduced to 5 wt % without any decrease in reaction time, yield or purity.

[2] = Solubility of 3 in 2-MeTHF/heptane mixtures
Protocol: A series of experiments were performed to test the solubility of 3 in a mixture of 2-MeTHF and heptane.

[3] = Solubility of 6 in extraction solvents
Protocol: While this initial trial was very promising, in subsequent experiments on larger scale, complications were encountered. One issue was that during the neutralization of acetic acid, emulsions were often obtained. Multiple solvent systems were investigated and the solubility of 6 was evaluated to estimate the efficiency of the extraction (Table 17).

[4] = Solubility of 7 in a selection of solvents
Text: Isolation of 7 from the MSA aqueous layer was completed by addition of DCM followed by basification with aqueous NaOH to extract the 7 free base into the DCM layer. […] Isolation from the DCM solution was developed by concentrating the volume of the DCM to induce crystallization followed by the addition of heptane as an anti-solvent. […] Possible solvents candidates which could be used to efficiently extract 7 were limited to DCM due to the poor solubility of 7 in a variety of common solvents (Table 19).

## CC(C)(C)OC(=O)NC1(c2ccc(Nc3nc(-c4ccccc4)ccc3[N+](=O)[O-])cc2)CCC1 [Compound 3, tert-butyl (1-(4-((3-nitro-6-phenylpyridin-2-yl)amino)phenyl)cyclobutyl)carbamate]
[1]; in 2-MeTHF
  solubility: 100000 µg/mL (≈ 217 mM)
[1]; in HOAc
  solubility: 24800 µg/mL (≈ 53.9 mM)
[1]; in THF
  solubility: 155000 µg/mL (≈ 337 mM)
[2]; 2-MeTHF/heptane 1/0 (v/v), 2-MeTHF/heptane (v/v) 1/0, 25° C.
  solubility: 100000 µg/mL (≈ 217 mM)
[2]; 2-MeTHF/heptane 2/8 (v/v), 2-MeTHF/heptane (v/v) 2/8, 25° C.
  solubility: 300 µg/mL (≈ 0.651 mM)
[2]; 2-MeTHF/heptane 3/7 (v/v), 2-MeTHF/heptane (v/v) 3/7, 25° C.
  solubility: 1200 µg/mL (≈ 2.61 mM)
[2]; 2-MeTHF/heptane 4/6 (v/v), 2-MeTHF/heptane (v/v) 4/6, 25° C.
  solubility: 3800 µg/mL (≈ 8.25 mM)
[2]; 2-MeTHF/heptane 5/5 (v/v), 2-MeTHF/heptane (v/v) 5/5, 25° C.
  solubility: 4500 µg/mL (≈ 9.77 mM)
[2]; 2-MeTHF/heptane 6/4 (v/v), 2-MeTHF/heptane (v/v) 6/4, 25° C.
  solubility: 8000 µg/mL (≈ 17.4 mM)
[2]; 2-MeTHF/heptane 7/3 (v/v), 2-MeTHF/heptane (v/v) 7/3, 25° C.
  solubility: 13000 µg/mL (≈ 28.2 mM)
[2]; 2-MeTHF/heptane 8/2 (v/v), 2-MeTHF/heptane (v/v) 8/2, 25° C.
  solubility: 23000 µg/mL (≈ 49.9 mM)
[2]; 2-MeTHF/heptane 9/1 (v/v), 2-MeTHF/heptane (v/v) 9/1, 25° C.
  solubility: 32000 µg/mL (≈ 69.5 mM)

## CC(C)(C)OC(=O)NC1(c2ccc(-n3c(-c4cccnc4N)nc4ccc(-c5ccccc5)nc43)cc2)CCC1 [Compound 6, tert-butyl (1-(4-(2-(2-aminopyridin-3-yl)-5-phenyl-3H-imidazo[4,5-b]pyridin-3-yl)phenyl)cyclobutyl)carbamate]
[3]; Solvent 2-MeTHF
  solubility: 25000 µg/mL (≈ 46.9 mM)
[3]; Solvent DCM
  solubility: 126000 µg/mL (≈ 237 mM)
[3]; Solvent EtOAc
  solubility: 6600 µg/mL (≈ 12.4 mM)
[3]; Solvent IPAc
  solubility: 2900 µg/mL (≈ 5.44 mM)
[3]; Solvent MTBE
  solubility: 690 µg/mL (≈ 1.3 mM)
[3]; Solvent THF
  solubility: 110000 µg/mL (≈ 207 mM)
[3]; Solvent Toluene
  solubility: 4500 µg/mL (≈ 8.45 mM)

## Nc1ncccc1-c1nc2ccc(-c3ccccc3)nc2n1-c1ccc(C2(N)CCC2)cc1 [Compound 7, 3-(3-(4-(1-aminocyclobutyl)phenyl)-5-phenyl-3H-imidazo[4,5-b]pyridin-2-yl)pyridin-2-amine]
[4]; Solvent 2-MeTHF
  solubility: 4800 µg/mL (≈ 11.1 mM)
[4]; Solvent DCM
  solubility: 73000 µg/mL (≈ 169 mM)
[4]; Solvent EtOAc
  solubility: 5600 µg/mL (≈ 12.9 mM)
[4]; Solvent IPAc
  solubility: 2900 µg/mL (≈ 6.7 mM)
[4]; Solvent MTBE
  solubility: 760 µg/mL (≈ 1.76 mM)
[4]; Solvent THF
  solubility: 24000 µg/mL (≈ 55.5 mM)
[4]; Solvent Toluene
  solubility: 9300 µg/mL (≈ 21.5 mM)
